SMILES strings stand for the structures.

In general, EC50 refers to the concentration that produces a half-maximal response.

This test deals with T1, GPR119 receptor (Mesocricetus auratus, UniProt A0A1U8CD06).
T1 construct: which endogenously express the GPR119 receptor; host or cells: HIT-T15 hamster pancreatic islet cells
T1 sequence (A0A1U8CD06 1-334): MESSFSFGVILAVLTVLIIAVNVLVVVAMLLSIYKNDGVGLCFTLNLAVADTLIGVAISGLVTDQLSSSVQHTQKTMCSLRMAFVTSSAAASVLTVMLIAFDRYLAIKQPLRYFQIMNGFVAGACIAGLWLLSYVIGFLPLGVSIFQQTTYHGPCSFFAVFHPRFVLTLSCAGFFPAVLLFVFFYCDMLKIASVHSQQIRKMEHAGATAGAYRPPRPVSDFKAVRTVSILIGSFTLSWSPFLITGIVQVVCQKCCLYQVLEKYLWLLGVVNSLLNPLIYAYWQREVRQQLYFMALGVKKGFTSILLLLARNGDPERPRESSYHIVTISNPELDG
Briefly: cAMP assay in HIT-T15 hamster pancreatic islet cells (functional agonist activity). It is filed as cell-based. The following applies: HIT-T15 cells endogenously expressing GPR119; 30 min at 25° C.; intracellular cAMP. The method, then: The functional agonist activities of compounds of the invention were characterized using a cAMP assay in HIT-T15 hamster pancreatic islet cells (American Type Culture Collection, Manassas, Va., USA) which endogenously express the GPR119 receptor. The cells were cultured in Kaighn's modification of Ham's F12 medium (Invitrogen Corporation, Carlsbad, Calif., USA) containing 10% horse serum, 2.5% FBS, and 1% Pen/Strep and grown in 225 cm^2 tissue culture flasks until they reached 75-85% confluence.
The cells were harvested 24 h prior to assay with 5 ml Versene®, washed with Kaighn/F12 medium and then plated into white 384-well plates (9000 cells/well) containing Kaighn/F12 medium. Prior to assay, the culture medium was replaced with a Kaighn/F12 medium without phenol red (50 μL/well) containing 0.5 mM 3-isobutyl-1-methylxanthine, 0.5 mg/ml BSA. The cells were incubated in the dark for 30 min at 25° C. in the absence or presence of varying concentrations of agonist (1 μL, 100% DMSO). The incubation media was discarded and replaced with the assay lysis buffer (50 μL/well) provided in the Tropix cAMP-Screen® kit (Applied Biosystems, Foster City, Calif., USA) and the plates incubated for 45 min at 37° C. The intracellular levels of cAMP generated in the HIT-T 15 cells were measured using the Tropix kit. In brief, 20 μL of the lysate was transferred into pre-coated antibody plates (384-well; Tropix kit) along with 10 μL of alkaline phosphatase conjugate and 20 μL of anti-cAMP antibody and the plates were incubated for 1 h at room temperature while shaking. The plates were then washed 5 times with wash buffer (70 μL) and tapped dry. CSPD®/Sapphire-II™ RTU substrate/enhancer solution (Applied Biosystems, Foster City, Calif., USA; 30 μL) was added and the plates were incubated for 45 min at room temperature while shaking. The signal generated was measured using a Wallac Victor V Luminometer (PerkinElmer Life And Analytical Sciences, Inc., Waltham, Mass., USA; 1 sec/well). EC50 values were calculated using the XLFit program (ID Business Solutions Ltd., Guildford, Surrey, UK).
(In general: Cyclic AMP is a second messenger, typically raised through Gs and lowered through Gi signalling.)
In turn, `CC(C)C(=O)N1CCC(n2ncc3c(Oc4ccc(S(C)(=O)=O)cc4)ncnc32)CC1` [Example 136, 1-{4-[4-(4-Methanesulfonyl-phenoxy)-pyrazolo[3,4-d]pyrimidin-1-yl]-piperidin-1-yl}-2-methyl-propan-1-one] gave an EC50 of 0.99 µM. Regarding `CCOc1ccc(Oc2ncnc3c2cnn3C2CCN(C(=O)OC(C)(C)C)CC2)cc1` [Example 40, 4-[4-(4-Ethoxy-phenoxy)-pyrazolo[3,4-d]pyrimidin-1-yl]-piperidine-1-carboxylic acid tert-butyl ester], the 50% effective concentration (EC50) turned out to be 0.2 µM. Then `Cc1cc(Oc2ncnc3c2cnn3C2CCN(C(=O)OC(C)(C)C)CC2)ccc1NS(C)(=O)=O` [Example 68, 4-[4-(4-Methanesulfonylamino-3-methyl-phenoxy)-pyrazolo[3,4-d]pyrimidin-1-yl]-piperidine-1-carboxylic acid tert-butyl ester], with 0.73 µM; and `CC(C)OC(=O)N1CCC(n2ncc3c(Oc4ccc(S(C)(=O)=O)c(F)c4)ncnc32)CC1` [Example 24, 4-[4-(3-Fluoro-4-methanesulfonyl-phenoxy)-pyrazolo[3,4-d]pyrimidin-1-yl]-piperidine-1-carboxylic acid isopropyl ester], with 0.098 µM; and `COc1ccc(Oc2ncnc3c2cnn3C2CCN(C(=O)OC(C)(C)C)CC2)c(Cl)c1` [Example 44, 4-[4-(2-Chloro-4-methoxy-phenoxy)-pyrazolo[3,4-d]pyrimidin-1-yl]-piperidine-1-carboxylic acid tert-butyl ester], with 0.19 µM. Take `Cc1nnnn1-c1ccc(Oc2ncnc3c2cnn3[C@H]2CC[C@H](c3nc(C(C)C)no3)CC2)cc1` [Example 133, 1-[4-(3-Isopropyl-[1,2,4]oxadiazol-5-yl)-trans-cyclohexyl]-4-[4-(5-methyl-tetrazol-1-yl)phenoxy]-1H-pyrazolo[3,4-d]pyrimidine]: the EC50 was found to be 3.34 µM. Against the preceding molecule, the EC50 is about 18-fold higher. For `CC(C)(C)CC(=O)N1CCC(n2ncc3c(Oc4ccc(S(C)(=O)=O)cc4)ncnc32)CC1` [Example 144, 1-{4-[4-(4-Methanesulfonyl-phenoxy)-pyrazolo[3,4-d]pyrimidin-1-yl]-piperidin-1-yl}-3,3-dimethyl-butan-1-one], the EC50 came out at 0.27 µM.

For `CC(C)(C)OC(=O)N1CCC(n2ncc3c(Oc4ccccc4C#N)ncnc32)CC1` [Example 45, 4-[4-(2-Cyano-phenoxy)-pyrazolo[3,4-d]pyrimidin-1-yl]-piperidine-1-carboxylic acid tert-butyl ester], the concentration for a half-maximal effect (EC50) was found to be 0.061 µM. The molecule `Cc1nc(-n2cncn2)ccc1Oc1ncnc2c1cnn2C1CCN(C(=O)OC(C)C)CC1` [Example 30, 4-[4-(2-Methyl-6-[1,2,4]triazol-1-yl-pyridin-3-yloxy)-pyrazolo[3,4-d]pyrimidin-1-yl]-piperidine-1-carboxylic acid isopropyl ester] showed an EC50 of 0.86 µM.

Take `CS(=O)(=O)c1ccc(Oc2ncnc3c2cnn3C2CCN(C(=O)C(F)(F)F)CC2)cc1` [Example 148, 2,2,2-Trifluoro-1-{4-[4-(4-methanesulfonyl-phenoxy)-pyrazolo[3,4-d]pyrimidin-1-yl]-piperidin-1-yl}-ethanone]: the EC50 was found to be 1.7 µM. Then `CC(C)(C)OC(=O)N1CCC(n2ncc3c(Oc4ccc5c(c4)CCS5(=O)=O)ncnc32)CC1` [Example 79, 4-[4-(1,1-Dioxo-2,3-dihydro-1H-1λ^6-benzo[b]thiophen-5-yloxy)-pyrazolo[3,4-d]pyrimidin-1-yl]-piperidine-1-carboxylic acid tert-butyl ester], with 0.82 µM; and `CC(C)(C)OC(=O)N1CCC(n2ncc3c(Oc4ccc(C#N)cc4F)ncnc32)CC1` [Example 47, 4-[4-(4-Cyano-2-fluoro-phenoxy)-pyrazolo[3,4-d]pyrimidin-1-yl]-piperidine-1-carboxylic acid tert-butyl ester], with 0.28 µM. The result for `Cc1nn(C2CCN(C(=O)OC(C)C)CC2)c2ncnc(Oc3ccc(S(C)(=O)=O)cc3)c12` [Example 22, 4-[4-(4-Methanesulfonyl-phenoxy)-3-methyl-pyrazolo[3,4-d]pyrimidin-1-yl]-piperidine-1-carboxylic acid isopropyl ester] reads 0.21 µM; that for `CS(=O)(=O)c1ccc(Oc2ncnc3c2cnn3C2CCN(Cc3ccccc3O)CC2)cc1` [Example 164, 2-{4-[4-(4-Methanesulfonyl-phenoxy)-pyrazolo[3,4-d]pyrimidin-1-yl]-piperidin-1-ylmethyl}-phenol], 0.36 µM. Then `CCOc1ccc(Oc2ncnc3c2cnn3C2CCN(C(=O)C3CCCC3)CC2)c(F)c1` [Example 147, Cyclopentyl-{4-[4-(4-ethoxy-2-fluoro-phenoxy)-pyrazolo[3,4-d]pyrimidin-1-yl]-piperidin-1-yl}-methanone], with 0.26 µM. `COc1ccc(Oc2ncnc3c2cnn3C2CCN(C(=O)OC(C)(C)C)CC2)c(OC)n1` [Example 95, 4-[4-(2,6-Dimethoxy-pyridin-3-yloxy)-pyrazolo[3,4-d]pyrimidin-1-yl]-piperidine-1-carboxylic acid tert-butyl ester] came in with an EC50 of 0.89 µM. Then `CC(C)(C)OC(=O)N1CCC(n2ncc3c(Oc4ccc(C#N)cc4)ncnc32)CC1` [Example 46, 4-[4-(4-Cyano-phenoxy)-pyrazolo[3,4-d]pyrimidin-1-yl]-piperidine-1-carboxylic acid tert-butyl ester], with 0.48 µM; and `COc1ccccc1CN1CCC(n2ncc3c(Oc4ccc(S(C)(=O)=O)cc4)ncnc32)CC1` [Example 165, 4-(4-Methanesulfonyl-phenoxy)-1-[1-(2-methoxy-benzyl)-piperidin-4-yl]-1H-pyrazolo[3,4-d]pyrimidine], with 1.4 µM. Then `Cc1ncccc1Oc1ncnc2c1cnn2C1CCN(c2nc(C(C)C)no2)CC1` [Example 129, 1-[1-(3-Isopropyl-[1,2,4]oxadiazol-5-yl)-piperidin-4-yl]-4-(2-methyl-pyridin-3-yloxy)-1H-pyrazolo[3,4-d]pyrimidine], with 2.3 µM; and `CC(C)(C)OC(=O)N1CCC(n2ncc3c(Oc4ccc(-n5cncn5)cc4)ncnc32)CC1` [Example 80, 4-[4-(4-[1,2,4]Triazol-1-yl-phenoxy)-pyrazolo[3,4-d]pyrimidin-1-yl]-piperidine-1-carboxylic acid tert-butyl ester], with 0.046 µM; and `CC(C)(C)OC(=O)N1CCC(n2ncc3c(Oc4ccc(OC(F)(F)F)cc4)ncnc32)CC1` [Example 42, 4-[4-(4-Trifluoromethoxy-phenoxy)-pyrazolo[3,4-d]pyrimidin-1-yl]-piperidine-1-carboxylic acid tert-butyl ester], with 1.8 µM. Turning to `CCOc1ccc(Oc2ncnc3c2cnn3C2CCN(C(=O)OC(C)(C)C)CC2)c(F)c1` [Example 43, 4-[4-(4-Ethoxy-2-fluoro-phenoxy)-pyrazolo[3,4-d]pyrimidin-1-yl]-piperidine-1-carboxylic acid tert-butyl ester], the EC50 came to 0.018 µM.

Take `CC(C)(C)OC(=O)N1CCC(n2ncc3c(Oc4cnc5[nH]ccc5c4)ncnc32)CC1` [Example 72, 4-[4-(1H-Pyrrolo[2,3-b]pyridin-5-yloxy)-pyrazolo[3,4-d]pyrimidin-1-yl]-piperidine-1-carboxylic acid tert-butyl ester]: the concentration giving a half-maximal response (EC50) was 1.2 µM. This EC50 lies about 67-fold higher than the previous one. Then `CS(=O)(=O)c1ccc(Oc2ncnc3c2cnn3C2CCN(C(=O)OCC(F)(F)F)CC2)cc1` [Example 113, 4-[4-(4-Methanesulfonyl-phenoxy)-pyrazolo[3,4-d]pyrimidin-1-yl]-piperidine-1-carboxylic acid 2,2,2-trifluoro-ethyl ester], with 0.16 µM; and `CS(=O)(=O)c1ccc(Oc2ncnc3c2cnn3C2CCN(Cc3ccccc3)CC2)cc1` [Example 157, 1-(1-Benzyl-piperidin-4-yl)-4-(4-methanesulfonyl-phenoxy)-1H-pyrazolo[3,4-d]pyrimidine], with 0.58 µM.

`CC(C)(C)OC(=O)N1CCC(n2ncc3c(Oc4cc(F)c(F)cc4F)ncnc32)CC1` [Example 35, 4-[4-(2,4,5-Trifluoro-phenoxy)-pyrazolo[3,4-d]pyrimidin-1-yl]-piperidine-1-carboxylic acid tert-butyl ester] had an EC50 of 0.088 µM.
